The target of this assay is recombinant human CETP protein (Homo sapiens (Human), UniProt P11597). In words: Test of CETP inhibition activity (in vitro, buffer-based). In kind it is biochemical. Particulars: [14C]-cholesteryl ester transfer from reconstituted HDL to acceptor lipoprotein, 37° C., 60 minutes, PBS buffer. How it is done: Test of CETP Inhibition Activity (In Vitro, Buffer-Based)
(1) Preparation of Reconstituted HDL
Cholesterol (1.125 μmol), phosphatidyl choline (4.5 μmol) and [^14C]-labeled cholesteryl ester (2.0 μCi; 40 μl) were taken in a glass test tube and well mixed with a vortex, and dried under a nitrogen gas current so that it formed a thin film. The obtained mixture was dissolved in ethanol (200 μl), which was designated as Solution A. A PBS solution [a mixed solution of Na2HPO4 (30 mM), KH2PO4 (8.8 mM), NaCl (60 mM) and EDTA (pH 7.4; 0.67 mM); 4 ml] was taken in a tube and the reaction solution was vigorously stirred with a vortex under a nitrogen current. The above-described Solution A was gently injected into this mixture with a syringe and the reaction solution was vigorously stirred with a vortex for 5 minutes under a nitrogen current. Sodium cholate (200 mM; 0.38 ml) was added to the obtained mixture and the reaction solution was stirred for 2 minutes. ApoA-I protein (3 mg) was added to the obtained mixture and the reaction solution was stirred for 2 minutes. The obtained mixture was adjusted to 5 ml with the PBS solution and then dialyzed with the PBS solution. The obtained mixture was designated as the reconstituted HDL.
(2) Preparation of Acceptor Lipoprotein
NaBr was added to the plasma of a healthy person and the density of the mixture was adjusted to 1.019, and the mixture was subjected to density gradient centrifugation (40000 rpm, for 16 hours) to remove the fraction having a density of less than 1.019. NaBr was added to the obtained mixture and the density of the solution was adjusted to 1.063, and the solution was subjected to density gradient centrifugation (40000 rpm, 18 hours) to provide the fraction consisting of IDL (intermediate density lipoprotein) and LDL (1.019<density<1.063). The obtained fraction was dialyzed with the PBS solution. The obtained mixture was designated as the acceptor lipoprotein.
(3) Measurement of CETP Inhibition Activity
A recombinant human CETP protein (manufactured by Roar Biomedical Inc.; 4.5 ng), the acceptor lipoprotein described in (2) above (32.5 μg) and 5,5′-dithio-bis-(2-nitrobenzoic acid) (7 mM, 15 μl) were taken in a 96 well plate and the total amount of the mixture was adjusted to 48.5 μl with the PBS solution. The test compound [DMSO solution (concentration: 0.15, 0.5, 1.5, 5, 15, 50, 150 and 500 μM); 1.5 μl] was added to each well and the mixture was incubated in a thermostatic bath at 37° C. for 60 minutes. The reconstituted HDL (50 μl) described in (1) above was added to each well and the mixture was reacted in a thermostatic bath at 37° C. for 60 minutes. The 96 well plate was moved onto ice and a precipitation reagent [a mixed solution of magnesium chloride (60 mM) and 0.1% dextran sulfate[1/1(v/v)]; 15 μl] was added to each well, and then the mixture was allowed to stand on ice for 15 minutes. The reaction solution (80 μl) in each well was moved to a filter plate and centrifuged at 1500 rpm for 1 minute, and the filtrate which passed through the filter was designated as the HDL fraction and the radioactivity thereof was measured with a scintillation counter. The percentage decrease in radioactivity in the case where the test compound was added in comparison with that in case where the test compound was not added was designated as the percentage CETP inhibition. The IC50 value was calculated from the percentage CETP inhibition.

Counter-ions that a name gives are not always drawn.

The text below walks through data of US9321747B2, “Acid addition salt of substituted pyridine compound” (DAIICHI SANKYO COMPANY, LIMITED, priority 2012, dated 2016).

In general, IC50 refers to the concentration needed to halve the response being measured.

Chain of recombinant human CETP protein (P11597 18-493): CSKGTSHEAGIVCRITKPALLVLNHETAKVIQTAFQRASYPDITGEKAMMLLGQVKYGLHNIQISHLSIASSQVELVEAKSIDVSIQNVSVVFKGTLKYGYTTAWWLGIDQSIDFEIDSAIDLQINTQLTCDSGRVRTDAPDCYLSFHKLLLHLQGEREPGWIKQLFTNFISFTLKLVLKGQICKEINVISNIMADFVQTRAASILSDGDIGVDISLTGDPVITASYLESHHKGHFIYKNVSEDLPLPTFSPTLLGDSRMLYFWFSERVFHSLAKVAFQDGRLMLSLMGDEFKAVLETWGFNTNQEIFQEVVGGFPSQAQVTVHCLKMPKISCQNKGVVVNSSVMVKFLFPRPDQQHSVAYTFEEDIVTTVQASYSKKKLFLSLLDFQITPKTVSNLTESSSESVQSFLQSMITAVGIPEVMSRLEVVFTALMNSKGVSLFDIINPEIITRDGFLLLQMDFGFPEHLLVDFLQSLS

For `CC1(C)Cc2nc(C3CCN(c4ncc(OCC(CO)CO)cn4)CC3)c([C@@H](F)c3ccc(C(F)(F)F)cc3)c(C3CCC(F)(F)CC3)c2[C@@H](O)C1` [Example 1, (5S)-4-(4,4-Difluorocyclohexyl)-3-{(S)-fluoro[4-(trifluoromethyl)phenyl]methyl}-2-(1-{5-[3-hydroxy-2-(hydroxymethyl)propoxy]pyrimidin-2-yl}piperidin-4-yl)-7,7-dimethyl-5,6,7,8-tetrahydr oquinolin-5-ol dihydrochloride], the IC50 (dihydrochloride) stood at 35.2 nM.

On to `CC1(C)Cc2nc(C3CCN(c4ncc(OCC(CO)CO)cn4)CC3)c([C@@H](F)c3ccc(C(F)(F)F)cc3)c(C3CCC(F)(F)CC3)c2[C@@H](O)C1` [Example 2, (5S)-4-(4,4-Difluorocyclohexyl)-3-{(S)-fluoro[4-(trifluoromethyl)phenyl]methyl}-2-(1-{5-[3-hydroxy-2-(hydroxymethyl)propoxy]pyrimidin-2-yl}piperidin-4-yl)-7,7-dimethyl-5,6,7,8-tetrahydroquinolin-5-ol dihydrobromide], for which the IC50 was determined as 30.8 nM. With `CC1(C)Cc2nc(C3CCN(c4ncc(OCC(C)(CO)CO)cn4)CC3)c([C@@H](F)c3ccc(C(F)(F)F)cc3)c(C3CCC(F)(F)CC3)c2[C@@H](O)C1` [Example 3, (5S)-4-(4,4-Difluorocyclohexyl)-3-{(S)-fluoro[4-(trifluoromethyl)phenyl]methyl}-2-(1-{5-[3-hydroxy-2-(hydroxymethyl)-2-methylpropoxy]pyrimidin-2-yl}piperidin-4-yl)-7,7-dimethyl-5,6,7,8-tetrahydroquinolin-5-ol dihydrobromide], for the setting “dihydrobromide”, the IC50 came out at 39.3 nM. Consider `CC1(C)Cc2nc(C3CCN(c4ncc(OCC(C)(CO)CO)cn4)CC3)c([C@@H](F)c3ccc(C(F)(F)F)cc3)c(C3CCC(F)(F)CC3)c2[C@@H](O)C1` [Example 4, (5S)-4-(4,4-Difluorocyclohexyl)-3-{(S)-fluoro[4-(trifluoromethyl)phenyl]methyl}-2-(1-{5-[3-hydroxy-2-(hydroxymethyl)-2-methylpropoxy]pyrimidin-2-yl}piperidin-4-yl)-7,7-dimethyl-5,6,7,8-tetrahydroquinolin-5-ol dihydrochloride], for which, under “dihydrochloride”, the IC50 was 22.3 nM.

Turning to `CC1(C)Cc2nc(C3CCN(c4ncc(OCC(C)(CO)CO)cn4)CC3)c([C@@H](F)c3ccc(C(F)(F)F)cc3)c(C3CCC(F)(F)CC3)c2[C@@H](O)C1` [Example 5, (5S)-4-(4,4-Difluorocyclohexyl)-3-{(S)-fluoro[4-(trifluoromethyl)phenyl]methyl}-2-(1-{5-[3-hydroxy-2-(hydroxymethyl)-2-methylpropoxy]pyrimidin-2-yl}piperidin-4-yl)-7,7-dimethyl-5,6,7,8-tetrahydroquinolin-5-ol methanesulfonate], the IC50 turned out to be 28.5 nM. As for `CC(C)(O)CCOc1cnc(N2CCC(c3nc4c(c(C5CCC(F)(F)CC5)c3[C@@H](F)c3ccc(C(F)(F)F)cc3)[C@@H](O)CC(C)(C)C4)CC2)nc1` [Example 8, (5S)-4-(4,4-Difluorocyclohexyl)-3-{(S)-fluoro[4-(trifluoromethyl)phenyl]methyl}-2-{1-[5-(3-hydroxy-3-methylbutoxy)pyrimidin-2-yl]piperidin-4-yl}-7,7-dimethyl-5,6,7,8-tetrahydroquinolin-5-ol disuccinate], where the note is “disuccinate”, the IC50 turned out to be 22.7 nM. `CC(C)(O)CCOc1cnc(N2CCC(c3nc4c(c(C5CCC(F)(F)CC5)c3[C@@H](F)c3ccc(C(F)(F)F)cc3)[C@@H](O)CC(C)(C)C4)CC2)nc1` [Example 9, (5S)-4-(4,4-Difluorocyclohexyl)-3-{(S)-fluoro[4-(trifluoromethyl)phenyl]methyl}-2-{1-[5-(3-hydroxy-3-methylbutoxy)pyrimidin-2-yl]piperidin-4-yl}-7,7-dimethyl-5,6,7,8-tetrahydroquinolin-5-ol benzenesulfonate]: the IC50 came to 11.6 nM. As for `CC(C)(O)CCOc1cnc(N2CCC(c3nc4c(c(C5CCC(F)(F)CC5)c3[C@@H](F)c3ccc(C(F)(F)F)cc3)[C@@H](O)CC(C)(C)C4)CC2)nc1` [Example 10, (5S)-4-(4,4-Difluorocyclohexyl)-3-{(S)-fluoro[4-(trifluoromethyl)phenyl]methyl}-2-{1-[5-(3-hydroxy-3-methylbutoxy)pyrimidin-2-yl]piperidin-4-yl}-7,7-dimethyl-5,6,7,8-tetrahydroquinolin-5-ol maleate], the IC50 (maleate) is 13 nM.

In the case of `CC(C)(O)CCOc1cnc(N2CCC(c3nc4c(c(C5CCC(F)(F)CC5)c3[C@@H](F)c3ccc(C(F)(F)F)cc3)[C@@H](O)CC(C)(C)C4)CC2)nc1` [Example 11, (5S)-4-(4,4-Difluorocyclohexyl)-3-{(S)-fluoro[4-(trifluoromethyl)phenyl]methyl}-2-{1-[5-(3-hydroxy-3-methylbutoxy)pyrimidin-2-yl]piperidin-4-yl}-7,7-dimethyl-5,6,7,8-tetrahydroquinolin-5-ol hemifumarate], the IC50 came out at 28.9 nM. As for `CC1(C)Cc2nc(C3CCN(c4ncc(OC[C@@H](O)CO)cn4)CC3)c([C@@H](F)c3ccc(C(F)(F)F)cc3)c(C3CCC(F)(F)CC3)c2[C@@H](O)C1` [Example 13, (5S)-4-(4,4-Difluorocyclohexyl)-2-[1-(5-{[(2S)-2,3-dihydroxypropyl]oxy}pyrimidin-2-yl)piperidin-4-yl]-3-{(S)-fluoro[4-(trifluoromethyl)phenyl]methyl}-7,7-dimethyl-5,6,7,8-tetrahydroquinolin-5-ol dihydrochloride], for the setting “dihydrochloride”, the IC50 amounted to 58.4 nM. In the case of `CC1(C)Cc2nc(C3CCN(c4ncc(OC[C@@H](O)CO)cn4)CC3)c([C@@H](F)c3ccc(C(F)(F)F)cc3)c(C3CCC(F)(F)CC3)c2[C@@H](O)C1` [Example 14, (5S)-4-(4,4-Difluorocyclohexyl)-2-[1-(5-{[(2S)-2,3-dihydroxypropyl]oxy}pyrimidin-2-yl)piperidin-4-yl]-3-{(S)-fluoro[4-(trifluoromethyl)phenyl]methyl}-7,7-dimethyl-5,6,7,8-tetrahydroquinolin-5-ol dihydrobromide], the IC50 was 38.2 nM.

Take `CC1(C)Cc2nc(C3CCN(c4ncc(OC[C@H](O)CO)cn4)CC3)c([C@@H](F)c3ccc(C(F)(F)F)cc3)c(C3CCC(F)(F)CC3)c2[C@@H](O)C1` [Example 15, (5S)-4-(4,4-Difluorocyclohexyl)-2-[1-(5-{[(2R)-2,3-dihydroxypropyl]oxy}pyrimidin-2-yl)piperidin-4-yl]-3-{(S)-fluoro[4-(trifluoromethyl)phenyl]methyl}-7,7-dimethyl-5,6,7,8-tetrahydroquinolin-5-ol dihydrochloride]: the half-inhibitory concentration (IC50) (dihydrochloride) was determined as 38 nM. `CC1(C)Cc2nc(C3CCN(c4ncc(OC[C@H](O)CO)cn4)CC3)c([C@@H](F)c3ccc(C(F)(F)F)cc3)c(C3CCC(F)(F)CC3)c2[C@@H](O)C1` [Example 16, (5S)-4-(4,4-Difluorocyclohexyl)-2-[1-(5-{[(2R)-2,3-dihydroxypropyl]oxy}pyrimidin-2-yl)piperidin-4-yl]-3-{(S)-fluoro[4-(trifluoromethyl)phenyl]methyl}-7,7-dimethyl-5,6,7,8-tetrahydroquinolin-5-ol dihydrobromide]: the IC50 was 28.5 nM.
